Values joined by “and” are separate entries in the source; they are usually repeats but may differ in a detail not shown here. Equal values may be shown once.
What was measured:
xanthine oxidase = target: T1, xanthine oxidase (Bos taurus, UniProt P80457); assay: In vitro determination of xanthine oxidase (XOD) inhibition; assay type: biochemical; conditions: xanthine oxidase from butter milk, xanthine substrate, pH 7.4, 37° C.
T1 construct: purchased Sigma Chemical Company; host or cells: butter milk
T1 sequence (P80457 whole entry): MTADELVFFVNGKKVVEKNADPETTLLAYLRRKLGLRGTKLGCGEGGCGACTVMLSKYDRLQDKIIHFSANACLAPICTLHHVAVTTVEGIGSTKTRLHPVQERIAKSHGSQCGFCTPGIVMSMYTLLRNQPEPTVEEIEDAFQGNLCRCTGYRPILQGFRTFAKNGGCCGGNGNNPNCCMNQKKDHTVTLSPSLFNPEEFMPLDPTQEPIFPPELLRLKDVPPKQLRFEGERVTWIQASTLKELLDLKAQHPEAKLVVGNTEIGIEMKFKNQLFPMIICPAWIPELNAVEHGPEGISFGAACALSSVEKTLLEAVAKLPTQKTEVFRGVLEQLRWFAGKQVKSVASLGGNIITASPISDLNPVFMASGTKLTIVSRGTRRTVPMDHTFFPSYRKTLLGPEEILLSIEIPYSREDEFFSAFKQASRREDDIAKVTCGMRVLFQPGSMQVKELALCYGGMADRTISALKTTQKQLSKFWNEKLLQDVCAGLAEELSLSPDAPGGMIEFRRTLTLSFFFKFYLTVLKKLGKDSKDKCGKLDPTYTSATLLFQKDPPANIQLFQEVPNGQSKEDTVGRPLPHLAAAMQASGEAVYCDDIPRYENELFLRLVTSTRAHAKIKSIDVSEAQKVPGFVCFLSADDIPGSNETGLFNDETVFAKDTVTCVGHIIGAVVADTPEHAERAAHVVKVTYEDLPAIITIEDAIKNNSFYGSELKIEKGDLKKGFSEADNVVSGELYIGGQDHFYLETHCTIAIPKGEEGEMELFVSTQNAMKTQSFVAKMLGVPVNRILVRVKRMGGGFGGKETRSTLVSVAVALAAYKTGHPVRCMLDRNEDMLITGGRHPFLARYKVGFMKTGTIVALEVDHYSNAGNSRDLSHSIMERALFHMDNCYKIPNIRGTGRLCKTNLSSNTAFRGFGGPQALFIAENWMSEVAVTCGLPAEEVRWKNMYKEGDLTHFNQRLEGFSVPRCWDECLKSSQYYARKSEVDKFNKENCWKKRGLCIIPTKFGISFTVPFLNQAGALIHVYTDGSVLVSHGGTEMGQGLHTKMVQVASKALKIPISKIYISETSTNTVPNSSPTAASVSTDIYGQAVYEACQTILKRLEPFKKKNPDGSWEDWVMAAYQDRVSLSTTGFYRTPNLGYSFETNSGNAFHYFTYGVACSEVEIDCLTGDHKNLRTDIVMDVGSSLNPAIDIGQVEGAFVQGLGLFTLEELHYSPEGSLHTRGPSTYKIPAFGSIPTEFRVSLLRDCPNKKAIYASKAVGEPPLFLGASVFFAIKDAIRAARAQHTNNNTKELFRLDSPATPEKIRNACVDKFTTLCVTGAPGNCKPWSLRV
Method: (1) Preparation of test compounds:
Test compounds (compounds of Ex. No. listed in Table 1) were dissolved in dimethylsulfoxide and diluted with a 50 mM phosphate buffer to prepare aqueous solutions respectively having predetermined concentrations.
The inhibition rate was determined by the following equation: [formula]
The inhibition (%) was determined on each test compound prepared according to (1), and the IC50 value on the xanthine oxidase (XOD) inhibition was calculated from the value of inhibition.

interleukin 1 production = assay: Interleukin 1 production inhibitory activity (LPS, abdominal exuded macrophage, ELISA); assay type: cell-based, BALB/c mouse; conditions: 10^-6 M, 1 μg/ml LPS, 24 hours, mouse macrophage
Method: 1 ml of a 5% oyster glycogen solution was intra-abdominally administered to a BALB/c mouse (male, 8 weeks in age), and 4 days after the administration, the infiltrated abdominal exuded cells were adhered to a plastic dish for 2 hours, and 1 μg/ml of LPS was allowed to act on macrophage (1×10^6 cells). Interleukin 1 extricated on the supernatant in 24 hours was measured by an ELISA technique. The test compound (compounds of Ex. No. described in Table 3) was prepared so as to have a concentration of 10^-6 M, and the interleukin 1 production inhibitory activity was, expressed in terms of the percentage inhibition based on the amount of production of the control.

serum uric acid = assay: Determination of oral administration: lowering of serum uric acid in mice; assay type: in vivo, ICR male mice; conditions: Mus musculus; ICR male mice, oral, 1 mg/kg, 2 hours after administration, serum; read-out: Activity of lowering uric acid
Method: Test compounds suspended in a 5% gum arabic solution was forcibly administered by oral administration (compounds of Ex. No. of Table 2, dose: 1 mg/kg) to ICR male mice (age: about 7 weeks) (one group: 6 mice) by means of an oral probe. 2 hours after the administration, thoracotomy was conducted under etherization to collect blood from the heart, and serum was removed by a conventional process. The serum uric acid was measured by a biochemical automatic analyzer (Flexigem; Electro-Nucleonics, Inc.) by using a uric acid measurement kit (UA reagent; International Reagent) to determine the percentage of the lowering of uric acid. [formula]

collagen arthritis = assay: Collagen arthritis inhibitory activity (bovine II type collagen in rats); assay type: in vivo, Lewis rats; conditions: 6 weeks; for Swelling: 5 times per week, right foot volume increase, control 45.5 ± 5.1; for Antibody titer of anti-collagen: serum, ELISA, control 2.04 ± 0.36
Method: An emulsion comprising a bovine II type collagen and incomplete Freund's adjuvant in a proportion of 1:1 were intradermally injected to Lewis rats (male, about 6 weeks in age) (one group: 8 […]) at the region of the back so that the amount of antigen was 2 mg/rat, thereby inducing arthritis. The compound of Ex. No. 35 was suspended in a 5% gum arabic solution, and orally administered 5 times per week in two groups of 10 mg/kg and 50 mg/kg from the sensitized day. Only the gum arabic solution was administered to the control. Then 6 weeks after the sensitization, the percentage increase in the volume of the right foot was measured and expressed in terms of the percentage swelling, and the anti-collagen antibody titer of the serum was measured by the ELISA technique.

IC50 (xanthine oxidase)	SMILES	inhibition at 1 µM (interleukin 1 production) [%]	inhibition in vivo at 1 mg/kg (serum uric acid) [%]	Swelling (collagen arthritis; 10 mg/kg oral, *P < 0.05) [%]	Antibody titer of anti-collagen (collagen arthritis; 10 mg/kg oral) [μU/ml]	Swelling (collagen arthritis; 50 mg/kg oral, **P < 0.01) [%]	Antibody titer of anti-collagen (collagen arthritis; 50 mg/kg oral) [μU/ml]
2.3 nM	CCOc1ccc(-c2nc(C)c(C(=O)O)s2)cc1Cl [Example 49, 2-(3-chloro-4-ethoxyphenyl)-4-methyl-5-thiazolecarboxylic acid]	48	35				
2.4 nM	Cc1nc(-c2ccc(OC(C)C)c(Cl)c2)sc1C(=O)O [Example 50, 2-(3-Chloro-4-isopropoxyphenyl)-4-methyl-5-thiazolecarboxylic acid]	42	20				
1.5 nM	Cc1nc(-c2ccc(OCC(C)C)c(F)c2)sc1C(=O)O [Example 67, 2-(3-fluoro-4-isobutyloxyphenyl)-4-methyl-5-thiazolecarboxylic acid]	48	50				
0.83 nM	Cc1ccc(C(=O)c2ccc(-c3nc(C)c(C(=O)O)s3)cc2)c(C)c1 [Example 75, 2-(4-(2,4-Dimethylbenzoyl)phenyl)-4-methyl-5-thiazolecarboxylic acid]	48	33				
4.8 nM	Cc1ccc(C(=O)c2ccc(-c3nc(C)c(C(=O)O)s3)cc2)cc1 [Example 74, 4-Methyl-2-(4-(4-methylbenzoyl)phenyl)-5-thiazolecarboxylic acid]	52	39				
3.4 nM	Cc1nc(-c2ccc(OCc3ccc(F)cc3)c(Cl)c2)sc1C(=O)O [Example 58, 2-(3-Chloro-4-(4-fluorobenzyloxy)phenyl)-4-methyl-5-thiazolecarboxylic acid]	19	18				
2.7 nM	Cc1nc(-c2ccc(OCCC(C)C)c(Cl)c2)sc1C(=O)O [Example 52, 2-(3-Chloro-4-isopentyloxyphenyl)-4-methyl-5-thiazolecarboxylic acid]	33	47				
2.9 nM	CCOCCOc1ccc(-c2nc(C)c(C(=O)O)s2)cc1Br [Example 64, 2-(3-Bromo-4-(2-ethoxyethyloxy)phenyl)-4-methyl-5-thiazolecarboxylic acid]	28	25				

Second part, the compound before the results:

SMILES	IC50 (xanthine oxidase)	inhibition at 1 µM (interleukin 1 production) [%]	inhibition in vivo at 1 mg/kg (serum uric acid) [%]	Swelling (collagen arthritis; 10 mg/kg oral, *P < 0.05) [%]	Antibody titer of anti-collagen (collagen arthritis; 10 mg/kg oral) [μU/ml]	Swelling (collagen arthritis; 50 mg/kg oral, **P < 0.01) [%]	Antibody titer of anti-collagen (collagen arthritis; 50 mg/kg oral) [μU/ml]
Cc1nc(-c2ccc(OCC(C)(C)C)c([N+](=O)[O-])c2)sc1C(=O)O [Example 43, 2-(4-neopentyloxy-3-nitrophenyl)-4-methyl-5-thiazolecarboxylic acid]	0.64 nM	39	85				
Cc1nc(-c2cc(C(F)(F)F)cc(C(F)(F)F)c2)sc1C(=O)O [Example 26, 2-(3,5-Bistrifluoromethylphenyl)-4-methyl-5-thiazolecarboxylic acid]	5.7 nM	57	63				
Cc1nc(-c2ccc(OCCC(C)C)c([N+](=O)[O-])c2)sc1C(=O)O [Example 40, 2-(4-Isopentyloxy-3-nitrophenyl)-4-methyl-5-thiazolecarboxylic acid]	0.67 nM	36	85				
Cc1nc(-c2cccc(C(F)(F)F)c2)sc1C(=O)O [Example 5, 4-Methyl-2-(3-trifluoromethylphenyl)-5-thiazolecarboxylic acid]	0.63 nM	60	37				
Cc1nc(-c2ccc(N3CCCCC3)c([N+](=O)[O-])c2)sc1C(=O)O [Example 44, 4-methyl-2-(3-nitro-4-piperidinophenyl)-5-thiazolecarboxylic acid]	1.6 nM	22	83				
Cc1nc(-c2ccc(N3CCOCC3)c([N+](=O)[O-])c2)sc1C(=O)O [Example 45, 4-methyl-2(4-morpholino-3-nitrophenyl)-5-thiazolecarboxylic acid]	1.8 nM	18	88				
Cc1nc(-c2ccc(C(=O)c3ccccc3)cc2)sc1C(=O)O [Example 20, 2-(4-Benzoylphenyl)-4-methyl-5-thiazolecarboxylic acid]	6 nM and 6.2 nM	65	18	25.4 ± 5.3	1.88 ± 0.20	21.2 ± 4.2	1.68 ± 0.32
